Laboratory results taken from US9446018B2, “Pharmaceutical composition for treating or preventing angina or myocardial infarction induced by myocardial ischemia” (SINPHAR TIAN-LI PHARMACEUTICAL CO., LTD. (HANGZHOU), priority 2009, dated 2016).

System: myocardial cells (death induced from partial myocardial ischemia)
Assay: Embodiment 1: myocardial infarct size after 1 h ligature of the left descending coronary branch and 1 h reperfusion (TTC staining)
Format: in vivo, Crl:CD(SD) SPF rats

**Q.** What does the source list for `CC(=O)Oc1ccccc1C(=O)O` [Aspirin]?
**A.** effect on myocardial infarct size compared with the blank control group (in words) (Embodiment 1, Table 1, STA-2 alone in high dose or in low dose): did not produce any statistically meaningful effects; Myocardial Infarction Percentage (%) (rat, tube-fed once daily 7 days + IP 1/3 dose after ligation, isosorbide dinitrate 18.75 mg/Kg, STA-2 low dose 250 mg/Kg, Aspirin 8.3 mg/Kg, mean ± SEM): 14.75 ± 2.8%

**Q.** `O=[N+]([O-])O[C@H]1CO[C@H]2[C@@H]1OC[C@H]2O[N+](=O)[O-]` [isosorbide dinitrate] was tested. Which “effect on myocardial infarct size compared with the blank control group (in words)” value (rat, in vivo) did it give?
**A.** The value was “significant reduction in myocardial infarct size”.
